# Columns and labels:
# [1] = test system: local skin toxicity/irritancy
# dental pain = experiment: Clinical trial for dental pain after extraction of impacted third molar teeth; format: in vivo; conditions: single 500 mg dose, human subjects
# Method: The purpose of this clinical trial was to compare the safety and efficacy (onset, duration of relief, and overall efficacy) of a single 500 mg dose of the (S)-enantiomer of the invention versus placebo dose for relief of pain following extraction of impacted third molar teeth.
# Sixty-one subjects were enrolled in the study. The mean age for the subjects was 20.4 years, and all subjects were male. The majority of subjects were Caucasians (95.1%).
# The severity and relief of the pain was measured using an 11-point Pain Intensity Numerical Rating Scale (graded from 0=no pain at all to 10=worst pain imaginable) (PINRS) and a 5-point Categorical Pain Relief Scale (REL). Subjects completed the PINRS after surgery, but before the administration of (S)-enantiomer of the invention. Efficacy variables were derived from the REL and PINRS scores and included total pain relief (TOTPAR), pain intensity difference (PID), and summed pain intensity difference (SPID) and evaluated at time points of 4, 6, 8, and 12 hours after administration of the (S)-enantiomer of the invention.
# hNav1.7 [2] = target: T1, hNav1.7 (Homo sapiens, UniProt Q15858); conditions: (S)- versus (R)-enantiomer
# T1 sequence (Q15858 whole entry): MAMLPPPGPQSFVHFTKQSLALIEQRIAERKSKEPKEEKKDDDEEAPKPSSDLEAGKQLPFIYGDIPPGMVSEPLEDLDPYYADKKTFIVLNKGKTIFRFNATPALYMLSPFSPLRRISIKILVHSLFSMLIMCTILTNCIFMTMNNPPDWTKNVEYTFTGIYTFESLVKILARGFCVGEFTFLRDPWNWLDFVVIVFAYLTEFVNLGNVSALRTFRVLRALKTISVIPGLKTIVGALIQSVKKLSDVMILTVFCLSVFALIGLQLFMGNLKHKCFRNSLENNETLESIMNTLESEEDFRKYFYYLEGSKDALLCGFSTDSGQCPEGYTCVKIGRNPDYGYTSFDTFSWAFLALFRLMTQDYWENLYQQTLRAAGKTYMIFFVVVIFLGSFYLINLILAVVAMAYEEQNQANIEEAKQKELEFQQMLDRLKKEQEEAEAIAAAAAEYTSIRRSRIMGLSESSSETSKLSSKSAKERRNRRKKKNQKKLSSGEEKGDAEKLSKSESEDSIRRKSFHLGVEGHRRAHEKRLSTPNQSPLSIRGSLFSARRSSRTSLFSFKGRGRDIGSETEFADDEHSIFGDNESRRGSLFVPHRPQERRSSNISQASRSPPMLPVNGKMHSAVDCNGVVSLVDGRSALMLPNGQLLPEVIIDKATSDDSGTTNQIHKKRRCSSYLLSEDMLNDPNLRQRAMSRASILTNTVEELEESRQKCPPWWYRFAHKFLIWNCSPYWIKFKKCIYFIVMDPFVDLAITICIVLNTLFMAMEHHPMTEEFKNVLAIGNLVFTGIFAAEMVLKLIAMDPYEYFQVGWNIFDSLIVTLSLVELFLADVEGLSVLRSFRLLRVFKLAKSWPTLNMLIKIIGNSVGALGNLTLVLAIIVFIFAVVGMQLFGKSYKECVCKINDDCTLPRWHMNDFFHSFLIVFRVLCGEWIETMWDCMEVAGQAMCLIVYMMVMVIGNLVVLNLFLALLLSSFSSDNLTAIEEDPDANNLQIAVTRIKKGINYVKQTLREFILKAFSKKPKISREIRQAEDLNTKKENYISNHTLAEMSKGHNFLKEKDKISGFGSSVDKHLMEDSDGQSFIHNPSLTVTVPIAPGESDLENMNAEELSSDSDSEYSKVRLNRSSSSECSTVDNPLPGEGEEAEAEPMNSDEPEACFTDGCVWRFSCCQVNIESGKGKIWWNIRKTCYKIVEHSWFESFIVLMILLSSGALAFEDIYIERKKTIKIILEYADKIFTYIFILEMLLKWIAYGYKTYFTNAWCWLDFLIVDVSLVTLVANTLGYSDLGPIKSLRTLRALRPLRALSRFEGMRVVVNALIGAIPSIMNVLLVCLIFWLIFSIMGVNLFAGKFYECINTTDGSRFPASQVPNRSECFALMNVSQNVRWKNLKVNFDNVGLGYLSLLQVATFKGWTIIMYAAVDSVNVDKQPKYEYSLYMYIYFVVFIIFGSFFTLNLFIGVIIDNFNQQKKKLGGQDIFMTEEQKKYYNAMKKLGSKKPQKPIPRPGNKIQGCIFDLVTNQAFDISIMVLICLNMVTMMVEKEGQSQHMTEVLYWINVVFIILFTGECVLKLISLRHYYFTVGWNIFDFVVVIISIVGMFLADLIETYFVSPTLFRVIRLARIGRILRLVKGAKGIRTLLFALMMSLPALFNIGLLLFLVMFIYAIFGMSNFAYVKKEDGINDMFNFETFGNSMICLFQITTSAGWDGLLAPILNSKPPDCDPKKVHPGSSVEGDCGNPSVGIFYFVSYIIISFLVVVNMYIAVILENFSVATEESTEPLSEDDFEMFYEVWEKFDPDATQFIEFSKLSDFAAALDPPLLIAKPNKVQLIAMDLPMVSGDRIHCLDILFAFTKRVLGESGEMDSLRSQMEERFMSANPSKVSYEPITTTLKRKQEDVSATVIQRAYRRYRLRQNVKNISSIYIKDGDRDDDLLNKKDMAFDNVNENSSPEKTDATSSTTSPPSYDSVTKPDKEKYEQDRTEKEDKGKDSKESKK
# [3] = Phase 1 clinical trial of topical ointment: systemic pharmacokinetics; format: in vivo, human
# hNav1.7 [4] = target: T1, hNav1.7; experiment: Electrophysiological assay, whole cell voltage clamp; format: cell-based; parameters: expressed in transfected cells; host or cells: HEK293
# Method: HEK293 Cells expressing hNav1.7 were cultured in DMEM growth media (Gibco) with 0.5 mg/mL G418, +/−1% PSG, and 10% heat-inactivated fetal bovine serum at 37° C. and 5% CO2. For electrophysiological recordings, cells were plated on 10 mm dishes.
# Whole cell recordings were examined by established methods of whole cell voltage clamp (Bean et al., op. cit.) using an Axopatch 200B amplifier and Clampex software (Axon Instruments, Union City, Calif.). All experiments were performed at ambient temperature. Electrodes were fire-polished to resistances of 2-4 Mohms Voltage errors and capacitance artifacts were minimized by series resistance compensation and capacitance compensation, respectively. Data were acquired at 40 kHz and filtered at 5 kHz. The external (bath) solution consisted of: NaCl (140 mM), KCl (5 mM), CaCl2 (2 mM), MgCl2 (1 mM), HEPES (10 mM) at pH 7.4. The internal (pipette) solution consisted of (in mM): NaCl (5), CaCl2 (0.1), MgCl2 (2), CsCl (10), CsF (120), HEPES (10), EGTA (10), at pH 7.2.
# To estimate the steady-state affinity of compounds for the resting and inactivated state of the channel (Kr and Ki, respectively), 12.5 ms test pulses to depolarizing voltages from −60 to +90 m V from a holding potential of −120 m V was used to construct current-voltage relationships (1-V curves). A voltage near the peak of the IV-curve (−30 to 0 m V) was used as the test pulse throughout the remainder of the experiment. Steady-state inactivation (availability) curves were then constructed by measuring the current activated during a 8.75 ms test pulse following 1 second conditioning pulses to potentials ranging from −120 to −10 mV.
# The steady-state voltage-dependence of binding of a compound to a voltage-gated sodium channel was determined by measuring the blockage of the ionic current at two holding potentials. Binding to rested-state channels was determined by using a holding potential of −120 mV, so that maximal availability was achieved. Binding to inactivated-state channels was evaluated at a holding potential such that only about 10% of the channels were available to open. The membrane potential was held at this voltage for at least 10 seconds so that drug binding could equilibrate.
# The apparent dissociation constant at each voltage was calculated with the equation:
# [formula] where Kd is the dissociation constant (either Kr or Ki), and [Drug] is the concentration of the test compound.
structure (smiles),measurement,setting,value
"O=C1N(Cc2ccc(C(F)(F)F)o2)c2ccccc2[C@]12COc1cc3c(cc12)OCO3 [(I-S), (S)-1′-{[5-(trifluoromethyl)furan-2-yl]methyl}spiro[furo[2,3-f][1,3]benzodioxole-7,3′-indol]-2′(1′H)-one]",Serious Adverse Events (SAEs) or deaths,"[1]; 4% and 8% (w/w) ointment daily for 21 days, healthy subjects",No Serious Adverse Events (SAEs) or deaths were reported
same,cumulative irritation scores versus placebo ointments and negative control (0.9% saline),"[1]; human, in vivo",No difference was observed
same,"electrocardiography: pulse rate, quiescent resting state, QTc intervals","[1]; human, in vivo",did not demonstrate clinically significant changes
same,severity of Adverse Events (AEs),"[1]; human, in vivo",mild or moderate in severity
same,"vital signs, physical examinations, laboratory assessments","[1]; human, in vivo",no clinically significant changes from baseline
same,"skin irritation score, maximum","[1]; human, in vivo, 21 days",≤ 3
same,onset of action,dental pain,slow onset of action
same,pain relief compared to placebo,dental pain,higher
same,"primary and all secondary endpoints (TOTPAR, PID, SPID) versus placebo",dental pain,consistent analgesic trend
same,statistical significance from the placebo,dental pain,not achieved
same,inhibition potency against hNav1.7 compared to the (R)-enantiomer,hNav1.7 [2],> 1000 fold
same,concentrations in plasma,[3]; below LLOQ in most samples (489 out of 546=~90%),< 0.1 ng/mL
same,concentration at 22 day,"[3]; human, plasma, Day 22, read-out: highest level observed in plasma in one subject during the dosing period",0.994 ng/mL
same,potency in binding to the inactivated-state of hNav1.7 relative to the (R)-enantiomer,hNav1.7 [4]; (S)- versus (R)-enantiomer,about 5 times
same,Ki,hNav1.7 [4]; affinity for the inactivated state of hNav1.7,161 nM
same,Kd,"hNav1.7 [4]; affinity for the rested/closed state of hNav1.7, holding potential −120 mV, read-out: Kr",> 10 µM
